# Biological target: T1, Na^+ /H^+ exchange transport system (Rattus norvegicus, UniProt P26431)
# T1 construct: isolated ventricular myocytes (rat); endogenous in cells; host or cells: isolated rat ventricular myocytes (primary cells)
# Test: Inhibitory effect on the Na^+ /H^+ exchange transport system (in vitro), pH change in isolated ventricular myocytes under an acid load
# Format: cell-based
# Procedure: Inhibitry effect on the Na^+ /H^+ exchange transport system (in vitro)
# A test was carried out according to the method of Iemori et al. (J. Hypertension, 8, 153 (1990)). In detail, inhibitory effect on the Na^+ /H^+ exchange transport system was evaluated by using as an indication a pH change in isolated ventricular myocytes (rat) under an acid load.
# T1 sequence (P26431 whole entry): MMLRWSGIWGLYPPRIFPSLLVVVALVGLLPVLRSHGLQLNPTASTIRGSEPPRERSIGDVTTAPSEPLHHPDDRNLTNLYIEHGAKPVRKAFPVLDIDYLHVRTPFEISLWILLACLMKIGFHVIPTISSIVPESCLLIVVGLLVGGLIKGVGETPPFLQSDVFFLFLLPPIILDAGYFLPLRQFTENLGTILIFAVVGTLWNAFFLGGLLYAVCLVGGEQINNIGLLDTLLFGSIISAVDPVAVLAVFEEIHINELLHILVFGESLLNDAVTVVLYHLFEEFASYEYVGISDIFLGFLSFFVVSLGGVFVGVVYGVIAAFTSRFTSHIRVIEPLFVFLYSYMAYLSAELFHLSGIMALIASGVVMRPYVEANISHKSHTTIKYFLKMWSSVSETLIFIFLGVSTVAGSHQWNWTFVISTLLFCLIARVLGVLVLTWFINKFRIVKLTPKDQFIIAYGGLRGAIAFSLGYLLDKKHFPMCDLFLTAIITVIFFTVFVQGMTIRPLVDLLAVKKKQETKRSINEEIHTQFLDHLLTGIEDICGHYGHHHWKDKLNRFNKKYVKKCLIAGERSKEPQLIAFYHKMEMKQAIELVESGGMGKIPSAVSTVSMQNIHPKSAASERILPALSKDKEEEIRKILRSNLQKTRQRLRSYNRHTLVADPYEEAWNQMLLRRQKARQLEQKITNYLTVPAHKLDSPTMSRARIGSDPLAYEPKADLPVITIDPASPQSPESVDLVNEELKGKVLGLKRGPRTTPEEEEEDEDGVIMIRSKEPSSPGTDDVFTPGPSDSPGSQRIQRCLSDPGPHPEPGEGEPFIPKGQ
row,IC50 [nM],Compound
1,300,"Cc1ccc2c3c1cc(C(=O)N=C(N)N)n3CCC2=O [Example 1, N-(aminoiminomethyl)-5,6-dihydro-9-methyl-6-oxo-4H-pyrrolo [3,2,1-ij]quinoline-2-carboxamide methanesulfonate]"
2,300,"NC(N)=NC(=O)c1cc2cccc3c2n1CCC3 [Example 3, N-(aminoiminomethyl)-5,6-dihydro-4H-pyrrolo [3,2,1-ij]quinoline-2-carboxamide methanesulfonate]"
3,200,"Cc1ccc2c3c1cc(C(=O)N=C(N)N)n3CCO2 [Example 2, N-(aminoiminomethyl)-2,3-dihydro-7-methyl-pyrrolo [1,2,3-de]-1,4-benzoxazine-5-carboxamide methanesulfonate]"
